Laboratory results: PubChem BioAssay (NCI)
Several values for one entry are separate records, joined by “and”; a condition that tells them apart may be missing. Equal entries are not always repeated.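 Dose response: 5 concentrations. Exposure: 48 h. Format: 96-well plates. Endpoint: linear interpolation; highest concentration if not reached. GI50: concentration for 50% inhibition of growth. At the TGI there is no net growth.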

Assays:
Experiment in all cases: NCI-60 cell line screen, 48 h
COLO 205 colon = tested on: COLO 205 colon
NCI-H460 lung = tested on: NCI-H460 lung
A498 renal = tested on: A498 renal
HCT-15 colon = tested on: HCT-15 colon
SK-MEL-2 melanoma = tested on: SK-MEL-2 melanoma
HCT-116 colon = tested on: HCT-116 colon
LOX IMVI melanoma = tested on: LOX IMVI melanoma
UACC-62 melanoma = tested on: UACC-62 melanoma
SK-OV-3 ovarian = tested on: SK-OV-3 ovarian
HS 578T breast = tested on: HS 578T breast

Compound `N.N.N.N.O=C([O-])CCl.O=C([O-])CCl.[Co+3].[O-][Cl+3]([O-])([O-])[O-]` has a GI50 (COLO 205 colon) of over 100 µM, a TGI (COLO 205 colon) of over 100 µM and a GI50 (NCI-H460 lung) of over 100 µM. The TGI (NCI-H460 lung) was over 100 µM, the GI50 (A498 renal) was over 100 µM and the TGI (A498 renal) was over 100 µM. It also gave a GI50 (HCT-15 colon) of over 100 µM, a TGI (HCT-15 colon) of over 100 µM and a GI50 (SK-MEL-2 melanoma) of over 100 µM. For the same compound, the TGI (SK-MEL-2 melanoma) was over 100 µM, the GI50 (HCT-116 colon) was over 100 µM and the TGI (HCT-116 colon) was over 100 µM. For the same compound, the GI50 (LOX IMVI melanoma) was over 100 µM, the TGI (LOX IMVI melanoma) was over 100 µM and the GI50 (UACC-62 melanoma) was over 100 µM. The TGI (UACC-62 melanoma) was over 100 µM, the GI50 (SK-OV-3 ovarian) was over 100 µM and the TGI (SK-OV-3 ovarian) was over 100 µM.

Work on `CCCCOC(=O)CNC(=O)OC/C=C/C#CC#C/C=C/COC(=O)NCC(=O)OCCCC` yielded a GI50 (COLO 205 colon) of over 100 µM, a TGI (COLO 205 colon) of over 100 µM and a GI50 (NCI-H460 lung) of over 100 µM. It also gave a TGI (NCI-H460 lung) of over 100 µM, a GI50 (A498 renal) of over 100 µM and a TGI (A498 renal) of over 100 µM. It also gave a TGI (HCT-15 colon) of over 10 µM, a GI50 (SK-MEL-2 melanoma) of over 100 µM and a TGI (SK-MEL-2 melanoma) of over 100 µM. For the same compound, the GI50 (HCT-116 colon) was over 100 µM, the TGI (HCT-116 colon) was over 100 µM and the TGI (LOX IMVI melanoma) was over 10 µM. For the same compound, the GI50 (UACC-62 melanoma) was over 100 µM, the TGI (UACC-62 melanoma) was over 100 µM and the GI50 (SK-OV-3 ovarian) was over 100 µM. For the same compound, the TGI (SK-OV-3 ovarian) was over 100 µM.

`Cc1c2n(c(=O)[nH]c1=O)C1OC(CO)C(O2)C1O` (stereo unspecified) gave a TGI (COLO 205 colon) of over 100 µM, a TGI (NCI-H460 lung) of over 100 µM and a TGI (A498 renal) of over 100 µM. The TGI (HCT-15 colon) was over 100 µM, the TGI (SK-MEL-2 melanoma) was over 100 µM and the TGI (HCT-116 colon) was over 100 µM. It also gave a TGI (LOX IMVI melanoma) of over 100 µM, a TGI (UACC-62 melanoma) of over 100 µM and a TGI (SK-OV-3 ovarian) of over 100 µM.

In the case of `O=C1c2ccccc2C(=O)N1CCn1ccc(NC(c2ccccc2)(c2ccccc2)c2ccccc2)nc1=O`, the TGI (COLO 205 colon) is reported as 31.4 µM, the TGI (NCI-H460 lung) is reported as 65.5 µM and the TGI (A498 renal) is reported as 38.6 µM. The TGI (HCT-15 colon) was 62.6 µM, the TGI (SK-MEL-2 melanoma) was 43.2 µM and the TGI (HCT-116 colon) was 32.4 µM. It also gave a TGI (LOX IMVI melanoma) of 31.8 µM, a TGI (UACC-62 melanoma) of 26 µM and a TGI (SK-OV-3 ovarian) of over 100 µM.

Compound `CC(C)C(CCl)NC(=O)c1cccc(C(=O)N[C@H](CCl)C(C)C)n1` (stereo in doubt) has a TGI (COLO 205 colon) of over 100 µM, a TGI (NCI-H460 lung) of over 100 µM and a TGI (A498 renal) of over 100 µM. It also gave a TGI (HCT-15 colon) of over 100 µM, a TGI (HCT-116 colon) of over 100 µM and a TGI (LOX IMVI melanoma) of over 100 µM. It also gave a TGI (SK-OV-3 ovarian) of over 100 µM.

In the case of `CC(=O)CCn1ncc(Cl)c(Cl)c1=O`, the TGI (NCI-H460 lung) is reported as 42.2 µM, the TGI (A498 renal) is reported as 42.9 µM and the TGI (HCT-15 colon) is reported as 20.5 µM. The TGI (SK-MEL-2 melanoma) was 28.4 µM, the TGI (HCT-116 colon) was 27.9 µM and the TGI (LOX IMVI melanoma) was 30.5 µM. The TGI (UACC-62 melanoma) was 33.3 µM.

In the case of `Nc1nc(Cl)cc(NCCCCCCCCNc2cc(Cl)nc(N)n2)n1`, the TGI (COLO 205 colon) is reported as over 100 µM, the TGI (NCI-H460 lung) is reported as over 100 µM and the TGI (HCT-15 colon) is reported as over 100 µM. The TGI (SK-MEL-2 melanoma) was over 100 µM, the TGI (HCT-116 colon) was over 100 µM and the TGI (LOX IMVI melanoma) was 34.7 µM. For the same compound, the TGI (UACC-62 melanoma) was 95.3 µM and the TGI (SK-OV-3 ovarian) was over 100 µM.

Work on `CN1CC(=O)N2Cc3ccccc3-n3cccc3C2C1` (stereo unspecified) yielded a TGI (COLO 205 colon) of over 100 µM, a TGI (NCI-H460 lung) of over 100 µM and a TGI (A498 renal) of over 100 µM. The TGI (HCT-15 colon) was over 100 µM, the TGI (SK-MEL-2 melanoma) was over 100 µM and the TGI (HCT-116 colon) was over 100 µM. For the same compound, the TGI (LOX IMVI melanoma) was over 100 µM, the TGI (UACC-62 melanoma) was over 100 µM and the TGI (SK-OV-3 ovarian) was over 100 µM.

For `O=c1/c(=C/c2ccccc2[N+](=O)[O-])sc2nnc(-c3ccco3)n12`, the TGI (COLO 205 colon) was over 100 µM, the TGI (NCI-H460 lung) was 56.2 µM and the TGI (A498 renal) was over 100 µM. The TGI (HCT-15 colon) was 75.8 µM, the TGI (SK-MEL-2 melanoma) was 34.6 µM and the TGI (HCT-116 colon) was 58.8 µM. It also gave a TGI (LOX IMVI melanoma) of 31.8 µM, a TGI (UACC-62 melanoma) of over 100 µM and a TGI (SK-OV-3 ovarian) of over 100 µM.

Compound `CC1(C)CC(=O)C(C=NC(=S)c2ccccc2)=C(O)C1` has a TGI (COLO 205 colon) of over 100 µM, a TGI (NCI-H460 lung) of over 100 µM and a TGI (HCT-15 colon) of over 100 µM. For the same compound, the TGI (HS 578T breast) was over 100 µM, the TGI (SK-MEL-2 melanoma) was over 100 µM and the TGI (HCT-116 colon) was over 100 µM. The TGI (LOX IMVI melanoma) was over 100 µM, the TGI (UACC-62 melanoma) was over 100 µM and the TGI (SK-OV-3 ovarian) was over 100 µM.

Compound `OC(CC1SCCCS1)c1ccccc1` (stereo unspecified) has a TGI (COLO 205 colon) of over 100 µM, a TGI (NCI-H460 lung) of over 100 µM and a TGI (A498 renal) of over 100 µM. The TGI (HCT-15 colon) was over 100 µM, the TGI (SK-MEL-2 melanoma) was over 100 µM and the TGI (HCT-116 colon) was over 100 µM. For the same compound, the TGI (UACC-62 melanoma) was over 100 µM and the TGI (SK-OV-3 ovarian) was over 100 µM.

For `COC(=O)C(C(=O)c1ccccc1)C(C(=O)C(=O)Nc1ccc(OC)cc1OC)C(=O)C(=O)c1ccc(C)cc1` (stereo unspecified), the TGI (COLO 205 colon) was over 100 µM, the TGI (NCI-H460 lung) was over 100 µM and the TGI (A498 renal) was over 100 µM. For the same compound, the TGI (HCT-15 colon) was over 100 µM, the TGI (SK-MEL-2 melanoma) was over 100 µM and the TGI (HCT-116 colon) was over 100 µM. It also gave a TGI (LOX IMVI melanoma) of over 100 µM, a TGI (UACC-62 melanoma) of over 100 µM and a TGI (SK-OV-3 ovarian) of over 100 µM.

`Cc1cn2c(=O)c3ncn(C4OC(CO)C(O)C4O)c3n(C)c2n1` (stereo unspecified) gave a TGI (COLO 205 colon) of over 100 µM, a TGI (NCI-H460 lung) of over 100 µM and a TGI (A498 renal) of over 100 µM. The TGI (HCT-15 colon) was over 100 µM, the TGI (SK-MEL-2 melanoma) was over 100 µM and the TGI (HCT-116 colon) was over 100 µM. The TGI (LOX IMVI melanoma) was over 100 µM, the TGI (UACC-62 melanoma) was over 100 µM and the TGI (SK-OV-3 ovarian) was over 100 µM.

In the case of `Clc1ccc2c(c1)[nH]c1c2nc2ccccn21`, the GI50 (NCI-H460 lung) is reported as 44.3 µM and 17.4 µM, the TGI (NCI-H460 lung) is reported as > 100 µM and 35.9 µM and the TGI (A498 renal) is reported as > 100 µM and 44.5 µM. For the same compound, the GI50 (HCT-15 colon) was 40.8 µM and 20 µM, the TGI (HCT-15 colon) was > 100 µM and 38.5 µM and the TGI (SK-MEL-2 melanoma) was > 100 µM and 17.8 µM. For the same compound, the TGI (HCT-116 colon) was 48.3 µM and 46.6 µM and the TGI (SK-OV-3 ovarian) was > 100 µM and 63.7 µM.

For `COc1ccc2occ(CCC(=O)O)c2c1`, the TGI (COLO 205 colon) was over 100 µM, the TGI (NCI-H460 lung) was over 100 µM and the TGI (A498 renal) was over 100 µM. It also gave a TGI (HCT-15 colon) of over 100 µM, a TGI (HCT-116 colon) of over 100 µM and a TGI (LOX IMVI melanoma) of over 100 µM. For the same compound, the TGI (UACC-62 melanoma) was over 100 µM and the TGI (SK-OV-3 ovarian) was over 100 µM.

Compound `CCC12CCCN(Cc3ccccc3)C1c1c(n(C)c3ccccc13)CC2` (stereo unspecified) has a TGI (COLO 205 colon) of over 253 µM, a TGI (NCI-H460 lung) of over 253 µM and a TGI (HCT-15 colon) of over 253 µM. It also gave a TGI (SK-MEL-2 melanoma) of over 253 µM, a TGI (HCT-116 colon) of over 253 µM and a TGI (LOX IMVI melanoma) of over 253 µM. The TGI (UACC-62 melanoma) was over 253 µM and the TGI (SK-OV-3 ovarian) was over 253 µM.
